Laboratory results as given in ChEMBL document CHEMBL1201862, “PubChem BioAssay data set” (2004).
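Test compounds were applied to cells in 96-well plates for 48 hours at 5 doses. The concentration for 50% growth inhibition is given as GI50.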 Activity calls are given as the source filed them. No stated cut-off is given here; in the data, active = GI50 up to about 1.1 µM and inactive = higher.

Key:
Test in all cases: NCI anticancer screen, dose series, 48 h
[1] = test system: ACHN
[2] = test system: DU-145
[3] = test system: EKVX
[4] = test system: HCT-15
[5] = test system: Hs-578T
[6] = test system: K562
[7] = test system: MDA-MB-435
[8] = test system: Malme-3M
[9] = test system: OVCAR-3
[10] = test system: OVCAR-8
[11] = test system: RXF 393
[12] = test system: SF-295
[13] = test system: SK-MEL-2
[14] = test system: SNB-75
[15] = test system: T47D
[16] = test system: UACC-257
[17] = test system: UACC-62

Compound | GI50 [1] | GI50 [2] | GI50 [3] | GI50 [4] | GI50 [5] | GI50 [6] | GI50 [7] | GI50 [8] | GI50 [9] | GI50 [10] | GI50 [11] | GI50 [12] | GI50 [13] | GI50 [14] | GI50 [15] | GI50 [16] | GI50 [17]
CC(N/N=C(\S)N1CCCC1)c1cccnn1 (centres undefined) | 0.391 µM (active) | 0.789 µM (active) | 0.294 µM (active) | 0.443 µM | 9.53 µM (inactive) | 0.632 µM (active) | 1.13 µM (inactive) | 0.849 µM (active) | 0.29 µM (active) | 0.342 µM (active) | 0.315 µM (active) | 0.451 µM (active) | 0.906 µM (active) | 7.52 µM (inactive) | 0.553 µM (active) | 0.267 µM (active) | 0.414 µM (active)
O=C1OC(C(O)C(O)C(O)CO)C(O)C1O (centres undefined) | > 100 µM (inactive) | > 100 µM (inactive) | > 100 µM (inactive) | > 100 µM | > 100 µM (inactive) | > 100 µM (inactive) | > 100 µM (inactive) | > 100 µM (inactive) | > 100 µM (inactive) | > 100 µM (inactive) | > 100 µM (inactive) | > 100 µM (inactive) | > 100 µM (inactive) | > 100 µM (inactive) | > 100 µM (inactive) | > 100 µM (inactive) | > 100 µM (inactive)
Cc1ccc(/C(O)=C/c2nc3ccccc3oc2=O)cc1 | 58.1 µM (inactive) | > 100 µM (inactive) | > 100 µM (inactive) | 92.7 µM | 46.9 µM (inactive) | 27.4 µM (inactive) | 25.6 µM (inactive) | 34.1 µM (inactive) | 51.2 µM (inactive) | 38.4 µM (inactive) | > 100 µM (inactive) | 59.6 µM (inactive) | > 100 µM (inactive) | > 100 µM (inactive) | 77.6 µM (inactive) | > 100 µM (inactive) | 37.7 µM (inactive)
CCOC1SC(SC)=NN1C(=O)C(OC(C)=O)C(OC(C)=O)C(OC(C)=O)C(OC(C)=O)C(=O)N1N=C(SC)SC1OCC (centres undefined) | > 100 µM (inactive) | > 100 µM (inactive) | > 100 µM (inactive) | > 100 µM | 35.2 µM (inactive) | > 100 µM (inactive) | > 100 µM (inactive) | > 100 µM (inactive) | > 100 µM (inactive) | > 100 µM (inactive) | 75.2 µM (inactive) | > 100 µM (inactive) | > 100 µM (inactive) | 48.3 µM (inactive) | > 100 µM (inactive) | > 100 µM (inactive) | > 100 µM (inactive)
COC(=O)C1SC[C@H]2C(=O)N(c3ccccc3)C(=O)N12 (some centres undefined) | > 100 µM (inactive) | > 100 µM (inactive) | > 100 µM (inactive) | > 100 µM | > 100 µM (inactive) | > 100 µM (inactive) | > 100 µM (inactive) | > 100 µM (inactive) | > 100 µM (inactive) | > 100 µM (inactive) | > 100 µM (inactive) | > 100 µM (inactive) | > 100 µM (inactive) | > 100 µM (inactive) | > 100 µM (inactive) | > 100 µM (inactive) | > 100 µM (inactive)
COc1ccc2c(=O)c3cc([N+](=O)[O-])ccc3n(C)c2c1 | > 100 µM (inactive) | > 100 µM (inactive) | 6.37 µM (inactive) | > 100 µM | > 100 µM (inactive) | > 100 µM (inactive) | > 100 µM (inactive) | > 100 µM (inactive) | > 100 µM (inactive) | > 100 µM (inactive) | > 100 µM (inactive) | > 100 µM (inactive) | > 100 µM (inactive) | > 100 µM (inactive) | > 100 µM (inactive) | > 100 µM (inactive) | > 100 µM (inactive)
C=CCC1(O)C(=O)OC2C(O)COC21O (centres undefined) | > 100 µM (inactive) | > 100 µM (inactive) | > 100 µM (inactive) | > 100 µM | > 100 µM (inactive) | > 100 µM (inactive) | > 100 µM (inactive) | > 100 µM (inactive) | > 100 µM (inactive) | > 100 µM (inactive) | > 100 µM (inactive) | > 100 µM (inactive) | > 100 µM (inactive) | 35.4 µM (inactive) | > 100 µM (inactive) | > 100 µM (inactive) | > 100 µM (inactive)
Cc1cccc2c1C/C(=C\c1cccc(C)c1C(=O)O)C2=O | > 100 µM (inactive) | > 100 µM (inactive) | > 100 µM (inactive) | > 100 µM | > 100 µM (inactive) | > 100 µM (inactive) | > 100 µM (inactive) | > 100 µM (inactive) | > 100 µM (inactive) | > 100 µM (inactive) | > 100 µM (inactive) | > 100 µM (inactive) | > 100 µM (inactive) | > 100 µM (inactive) | > 100 µM (inactive) | > 100 µM (inactive) | > 100 µM (inactive)
O=C1c2ccccc2C(=O)c2c1ccc1nc3c(nc21)-c1c2ccccc2cc2cccc-3c12 | 16.1 µM (inactive) | 29.2 µM (inactive) | 18.3 µM (inactive) | 29.4 µM | 13.7 µM (inactive) | > 29.6 µM (inactive) | 18.6 µM (inactive) | 51.9 µM (inactive) | 43.8 µM (inactive) | 27.4 µM (inactive) | 39.4 µM (inactive) | 21.4 µM (inactive) | 68.9 µM (inactive) | 19.5 µM (inactive) | 33.6 µM (inactive) | > 100 µM (inactive) | 26.5 µM (inactive)
CC(O)(/C=C/c1ccccc1)P(=O)(O)c1ccccc1 (centres undefined) | > 100 µM (inactive) | > 100 µM (inactive) | > 100 µM (inactive) | > 100 µM | > 100 µM (inactive) | > 100 µM (inactive) | > 100 µM (inactive) | > 100 µM (inactive) | > 100 µM (inactive) | > 100 µM (inactive) | > 100 µM (inactive) | > 100 µM (inactive) | > 100 µM (inactive) | 37.9 µM (inactive) | > 100 µM (inactive) | > 100 µM (inactive) | > 100 µM (inactive)
C[N+]12CCCCC1C(CN1C(=O)Cc3c4ccccc4c(c4ccccc34)CC1=O)CCC2 (centres undefined) | > 100 µM (inactive) | > 100 µM (inactive) | > 100 µM (inactive) | > 100 µM | > 100 µM (inactive) | > 100 µM (inactive) | > 100 µM (inactive) | > 100 µM (inactive) | > 100 µM (inactive) | > 100 µM (inactive) | > 100 µM (inactive) | > 100 µM (inactive) | > 100 µM (inactive) | > 100 µM (inactive) | > 100 µM (inactive) | > 100 µM (inactive) | > 100 µM (inactive)
CC1(C)CCCCCCCCCC(C)(CCCO)C1=O (centres undefined) | 17.9 µM (inactive) | 17.2 µM (inactive) | 15.8 µM (inactive) | 17.8 µM | 20.6 µM (inactive) | 24.6 µM (inactive) | 18.2 µM (inactive) | 16.8 µM (inactive) | 19.6 µM (inactive) | 18.4 µM (inactive) | 19.7 µM (inactive) | 18.6 µM (inactive) | 15 µM (inactive) | 17.9 µM (inactive) | 15.6 µM (inactive) | 17.7 µM (inactive) | 18.4 µM (inactive)
CCC/C(Cl)=N\OC(=O)Nc1ccc(Br)cc1 | 5.05 µM (inactive) | 13.8 µM (inactive) | 14.6 µM (inactive) | 2.56 µM | 21.1 µM (inactive) | 1.94 µM (inactive) | 14.5 µM (inactive) | 5.73 µM (inactive) | 6.22 µM (inactive) | 14.6 µM (inactive) | 16.6 µM (inactive) | 14.9 µM (inactive) | 15 µM (inactive) | 13.5 µM (inactive) | 7.24 µM (inactive) | 13.5 µM (inactive) | 18.9 µM (inactive)
NC(Cc1c[nH]c2cc([N+](=O)[O-])ccc12)C(=O)O (centres undefined) | > 100 µM (inactive) | > 100 µM (inactive) | > 100 µM (inactive) | > 100 µM | > 100 µM (inactive) | > 100 µM (inactive) | > 100 µM (inactive) | > 100 µM (inactive) | > 100 µM (inactive) | > 100 µM (inactive) | > 100 µM (inactive) | > 100 µM (inactive) | > 100 µM (inactive) | > 100 µM (inactive) | > 100 µM (inactive) | > 100 µM (inactive) | > 100 µM (inactive)
CC1=NN(c2ccccc2)C(=O)C1/N=N/c1ccc([As](=O)(O)O)c(O)c1 (centres undefined) | > 100 µM (inactive) | > 100 µM (inactive) | > 100 µM (inactive) | > 100 µM | > 100 µM (inactive) | > 100 µM (inactive) | > 100 µM (inactive) | > 100 µM (inactive) | > 100 µM (inactive) | > 100 µM (inactive) | > 100 µM (inactive) | > 100 µM (inactive) | > 100 µM (inactive) | > 100 µM (inactive) | 60.8 µM (inactive) | > 100 µM (inactive) | > 100 µM (inactive)
O=C1C(C(c2ccc([N+](=O)[O-])cc2)N2CCOCC2)=C(O)C(c2ccccc2)N1c1ccccc1 (centres undefined) | > 10 µM (inactive) | > 10 µM (inactive) | > 10 µM (inactive) | > 10 µM | > 10 µM (inactive) | > 10 µM (inactive) | > 10 µM (inactive) | > 10 µM (inactive) | > 10 µM (inactive) | > 10 µM (inactive) | > 10 µM (inactive) | > 10 µM (inactive) | > 10 µM (inactive) | 6.14 µM (inactive) | > 10 µM (inactive) | > 10 µM (inactive) | > 10 µM (inactive)
Nc1nc(=O)c2c([nH]1)NCC(CCNc1ccc(C(=O)O)cc1)N2 (centres undefined) | > 100 µM (inactive) | > 100 µM (inactive) | > 100 µM (inactive) | > 100 µM | > 100 µM (inactive) | > 100 µM (inactive) | > 100 µM (inactive) | > 100 µM (inactive) | > 100 µM (inactive) | > 100 µM (inactive) | > 100 µM (inactive) | > 100 µM (inactive) | > 100 µM (inactive) | > 100 µM (inactive) | > 100 µM (inactive) | > 100 µM (inactive) | > 100 µM (inactive)
